Measured values from US20230263822A1, “MODULATION OF FACTOR 11 EXPRESSION” (Ionis Pharmaceuticals, Inc., priority 2008, published 2023).
pIC50: −log10 of the molar value.

What was measured:
[1] = design: species or system CD1 mice; conditions: mouse, in vivo, sc, 50 mg/kg
Experimental: The concentration of the full-length oligonucleotide was measured. The method used is a modification of previously published methods (Leeds et al., 1996; Geary et al., 1999) which consist of a phenol-chloroform (liquid-liquid) extraction followed by a solid phase extraction. An internal standard (ISIS 355868, a 27-mer 2′-O-methoxyethyl modified phosphorothioate oligonucleotide, […], designated herein as SEQ ID NO: 270) was added prior to extraction. […] The results are presented in Table 85 expressed as μg/g liver tissue.

human Factor 11 mRNA [2] = test: Dose-dependent inhibition of human Factor 11 in HepB3 cells, lipofectin (Example 7); format: cell-based; conditions: for percent inhibition of Factor 11 mRNA relative to untreated control cells: ~16 hours
Experimental: Cells were plated at a density of 4,000 cells per well and transfected using lipofectin reagent with 2.3 nM, 4.7 nM, 9.4 nM, 18.75 nM, 37.5 nM, and 75 nM concentrations of antisense oligonucleotide, as specified in Table 14. After a treatment period of approximately 16 hours, RNA was isolated from the cells and human Factor 11 mRNA levels were measured by quantitative real-time PCR. Human Factor 11 primer probe set RTS 2966 was used to measure mRNA levels. Factor 11 mRNA levels were adjusted according to total RNA content, as measured by RIBOGREEN. Results are presented as percent inhibition of Factor 11, relative to untreated control cells.

[3] = Tolerability in Sprague-Dawley rats: body weight and organ weight (Example 35); format: in vivo; conditions: 50 mg/kg s.c. twice per week for 6 weeks; for Percent change: Body weight: percent change over the weights at the start of the study; for Percent change in organ weight: Kidney / Percent change in organ weight: Liver / Percent change in organ weight: Spleen: vs saline control, normalized to body weight
Text: Urine samples were taken before the start of treatment.
The body weights are presented in Table 71 and are expressed as a percent change over the weights taken at the start of the study.

human Factor 11 mRNA [4] = test: Dose-dependent inhibition of human Factor 11 in cyano primary hepatocytes, electroporation (Example 6); format: cell-based; conditions: ~16 hours
Experimental: Cells were plated at a density of 35,000 cells per well and transfected via electroporation with 0.74 nM, 2.2 nM, 6.7 nM, 20 nM, 60 nM, and 180 nM concentrations of antisense oligonucleotide, as specified in Table 13. After a treatment period of approximately 16 hours, RNA was isolated from the cells and human Factor 11 mRNA levels were measured by quantitative real-time PCR. Human Factor 11 primer probe set RTS 2966 was used to measure mRNA levels. Factor 11 mRNA levels were adjusted according to total RNA content, as measured by RIBOGREEN. Results are presented as percent inhibition of human Factor 11, relative to untreated control cells.

[5] = Tolerability in CD1 mice: body weight and organ weights (Example 37); conditions: 50 mg/kg s.c. twice per week for 6 weeks
Experimental: Body weight was measured at the onset of the study and subsequently twice per week. The body weights of the mice are presented in Table 80 and are expressed increase in grams over the PBS control weight taken before the start of treatment. Liver, spleen, and kidney weights were measured at the end of the study, and are also presented in Table 80 as percentage of the body weight.

Row | Substance | Half-Life in the liver [1] | pIC50 (human Factor 11 mRNA [2]) | percent inhibition of Factor 11 mRNA relative to untreated control cells (human Factor 11 mRNA [2]; 2.3 nM) | percent inhibition of Factor 11 mRNA relative to untreated control cells (human Factor 11 mRNA [2]; 4.7 nM) | percent inhibition of Factor 11 mRNA relative to untreated control cells (human Factor 11 mRNA [2]; 9.4 nM) | percent inhibition of Factor 11 mRNA relative to untreated control cells (human Factor 11 mRNA [2]; 18.75 nM) | percent inhibition of Factor 11 mRNA relative to untreated control cells (human Factor 11 mRNA [2]; 37.5 nM) | percent inhibition of Factor 11 mRNA relative to untreated control cells (human Factor 11 mRNA [2]; 75 nM) | Percent change: Body weight [3] | Percent change in organ weight: Kidney [3] | Percent change in organ weight: Liver [3] | Percent change in organ weight: Spleen [3] | percent inhibition of human Factor 11 mRNA relative to untreated control cells (human Factor 11 mRNA [4]; 0.74 nM) | percent inhibition of human Factor 11 mRNA relative to untreated control cells (human Factor 11 mRNA [4]; 2.2 nM) | percent inhibition of human Factor 11 mRNA relative to untreated control cells (human Factor 11 mRNA [4]; 6.7 nM) | percent inhibition of human Factor 11 mRNA relative to untreated control cells (human Factor 11 mRNA [4]; 20 nM) | percent inhibition of human Factor 11 mRNA relative to untreated control cells (human Factor 11 mRNA [4]; 60 nM) | percent inhibition of human Factor 11 mRNA relative to untreated control cells (human Factor 11 mRNA [4]; 180 nM) | other results
1 | 412223 (antisense ACAGTTTCTGGCAGGCCTCG; 5-10-5 MOE gapmer, further chemistry not given here) [compound 412223] | 21.9 days |  |  |  |  |  |  |  |  |  |  |  |  |  |  |  |  |  | 
2 | 412224 (antisense GCATTGGTGCACAGTTTCTG; 5-10-5 MOE gapmer, further chemistry not given here) [compound 412224] | 16.6 days |  |  |  |  |  |  |  |  |  |  |  |  |  |  |  |  |  | 
3 | 412225 (antisense GCAGCGGACGGCATTGGTGC; 5-10-5 MOE gapmer, further chemistry not given here) [compound 412225] | 20.7 days |  |  |  |  |  |  |  |  |  |  |  |  |  |  |  |  |  | 
4 | 413482 (antisense GGACGGCATTGGTGCACAGT; 5-10-5 MOE gapmer, further chemistry not given here) [compound 413482] | 19.5 days |  |  |  |  |  |  |  |  |  |  |  |  |  |  |  |  |  | 
5 | 416856 (antisense GGCATTGGTGCACAGTTTCT; 5-10-5 gapmer, further chemistry not given here) [compound 416856] | 19.2 days |  |  |  |  |  |  |  |  |  |  |  |  |  |  |  |  |  | 
6 | 416864 (antisense GGCAGCGGACGGCATTGGTG; 5-10-5 gapmer, further chemistry not given here) [compound 416864] |  | 8.05 | 24% | 37% | 42% | 66% | 76% | 63% | −24% | +16% | +16% | +204% | 0% | 1% | 15% | 23% | 47% | 64% | 
7 | 416892 (antisense GCCCTTCATGTCTAGGTCCA; 3-14-3 chimeric gapmer, further chemistry not given here) [compound 416892] |  | 8.05 | 28% | 34% | 50% | 68% | 82% | 72% | −39% | +32% | +38% | +151% | 20% | 20% | 43% | 62% | 88% | 92% | 
8 | 416925 (antisense GGTGCACAGTTTCTGGCAGG; 3-14-3 gapmer chemistry, further chemistry not given here) [compound 416925] |  | 7.92 | 26% | 33% | 45% | 59% | 72% | 60% | −32% | +48% | +44% | +371% | 0% | 9% | 1% | 48% | 55% | 76% | 
9 | 416999 (antisense GCACAGTTTCTGGCAGGCCT; 2-13-5 gapmer chemistry, further chemistry not given here) [compound 416999] |  | 7.92 | 19% | 33% | 42% | 60% | 71% | 59% | −37% | +71% | +51% | +405% | 3% | 40% | 36% | 62% | 67% | 82% | 
10 | 417002 (antisense GGTGCACAGTTTCTGGCAGG; 2-13-5 gapmer chemistry, further chemistry not given here) [compound 417002] |  | 7.89 | 24% | 30% | 46% | 57% | 71% | 65% | −29% | +63% | +27% | +446% | 32% | 16% | 28% | 38% | 55% | 71% | 
11 | 417003 (antisense TGGTGCACAGTTTCTGGCAG; 2-13-5 gapmer chemistry, further chemistry not given here) [compound 417003] |  | 7.77 | 11% | 28% | 40% | 40% | 63% | 58% | −40% | +25% | +51% | +522% | 12% | 18% | 19% | 39% | 58% | 74% | 
12 | ISIS 416864: MOE gapmer, nucleobases 1275 to 1318 of SEQ ID NO: 1 (Table 8) (antisense GGCAGCGGACGGCATTGGTG; MOE gapmer, wing and gap sizes not given here) |  |  |  |  |  |  |  |  |  |  |  |  |  |  |  |  |  |  | body weight ([5]; increase in grams over the PBS control weight taken before the start of treatment): 12 g; Kidney weight ([5]; percentage of the body weight): 1.6%; Liver weight ([5]; percentage of the body weight): 5%; Spleen weight ([5]; percentage of the body weight): 0.3%
